# What was measured:
# Mus musculus [1] = experiment: Toxicity in sc dosed albino mouse assessed as mydriasis; type: organism-based; conditions: in vivo
# Mus musculus [2] = experiment: Anti-tremorine activity against sc dosed albino mouse assessed as normalized dose for reversal of tremorine-induced spontaneous activity depression; type: functional
SMILES,ED50 (Mus musculus [1]) [mg/kg],ND (Mus musculus [2]) [mg/kg]
CN1[C@@H]2CC[C@H]1CC(OC(=O)[C@H](CO)c1ccccc1)C2 (stereo partly drawn) [ENDO-ATROPINE],0.061,2.2
CN1[C@@H]2C[C@@H](OC(=O)[C@H](CO)c3ccccc3)C[C@H]1[C@@H]1O[C@@H]12 [SCOPOLAMINE],0.012,1.3

# — ChEMBL document CHEMBL3272126 (J Med Chem, 1977)
